Measurements taken from PubChem BioAssay (NCI).
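1) Cells in 96-well plates. 2) Compound, 48 h, 5 concentrations. 3) Linear interpolation between surrounding doses. 4) Unreached endpoint = highest concentration. TGI marks complete inhibition of growth.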

Experiments:
Experiment in all cases: NCI-60 cell line screen, 48 h
SN12C renal = test system: SN12C renal
MDA-MB-435 = test system: MDA-MB-435
BT-549 breast = test system: BT-549 breast
SF-539 CNS = test system: SF-539 CNS
MALME-3M melanoma = test system: MALME-3M melanoma
OVCAR-3 ovarian = test system: OVCAR-3 ovarian
T-47D breast = test system: T-47D breast
HS 578T breast = test system: HS 578T breast
SK-MEL-2 melanoma = test system: SK-MEL-2 melanoma
NCI-H522 lung = test system: NCI-H522 lung
786-0 renal = test system: 786-0 renal
UO-31 renal = test system: UO-31 renal
KM12 colon = test system: KM12 colon
MCF7 breast = test system: MCF7 breast
SF-268 CNS = test system: SF-268 CNS
HOP-92 NSCLC = test system: HOP-92 NSCLC
MDA-MB-231 breast = test system: MDA-MB-231 breast
CCRF-CEM leukemia = test system: CCRF-CEM leukemia

Row | Compound | TGI (SN12C renal) [µM] | TGI (MDA-MB-435) [µM] | TGI (BT-549 breast) [µM] | TGI (SF-539 CNS) [µM] | TGI (MALME-3M melanoma) [µM] | TGI (OVCAR-3 ovarian) [µM] | TGI (T-47D breast) [µM] | TGI (HS 578T breast) [µM] | TGI (SK-MEL-2 melanoma) [µM] | TGI (NCI-H522 lung) [µM] | TGI (786-0 renal) [µM] | TGI (UO-31 renal) [µM] | TGI (KM12 colon) [µM] | TGI (MCF7 breast) [µM] | TGI (SF-268 CNS) [µM] | TGI (HOP-92 NSCLC) [µM] | TGI (MDA-MB-231 breast) [µM] | TGI (CCRF-CEM leukemia) [µM]
1 | NS(=O)(=O)c1nnc(NC(=O)c2cccc([N+](=O)[O-])c2)s1 | > 100 | > 100 | > 100 | > 100 | > 100 | > 100 | > 100 | > 100 | > 100 | > 100 | > 100 | > 100 | > 100 | > 100 | > 100 | > 100 | > 100 | –
2 | NC(=O)C(=CNC(=S)Nc1ccc(S(=O)(=O)Nc2ccccn2)cc1)C(N)=O | > 100 | > 100 | > 100 | > 100 | – | > 100 | > 100 | > 100 | > 100 | > 100 | > 100 | > 100 | > 100 | > 100 | > 100 | > 100 | > 100 | > 100
3 | CSc1nn(C)cc2nc(C)nc1-2 | > 100 | > 100 | > 100 | > 100 | – | > 100 | > 100 | > 100 | > 100 | – | > 100 | > 100 | > 100 | > 100 | > 100 | – | > 100 | > 100
4 | CC(C)CC1c2[nH]c3ccccc3c2C[C@H]2C(=O)NC(CCCCNC(=O)OC(C)(C)C)C(=O)N12 (some centres undefined) | 77.4 | > 100 | 95.5 | – | 78.5 | 16.6 | 16.1 | 25.6 | 46.8 | 72.3 | 50.7 | > 100 | > 100 | > 100 | > 100 | 89.8 | 51.1 | –
5 | Nc1ncnc2c1ncn2-c1ccc([N+](=O)[O-])cn1 | > 100 | > 100 | > 100 | > 100 | – | > 100 | > 100 | > 100 | > 100 | – | > 100 | > 100 | > 100 | > 100 | > 100 | > 100 | > 100 | > 100
6 | O=C1C2Cc3c(n(C(=O)c4ccccc4)c4ccccc34)CC2C(=O)N1c1ccc(Nc2ccc(N3C(=O)C4Cc5c(n(C(=O)c6ccccc6)c6ccccc56)CC4C3=O)cc2)cc1 (centres undefined) | > 100 | > 100 | > 100 | – | > 100 | > 100 | > 100 | > 100 | – | > 100 | > 100 | > 100 | > 100 | > 100 | > 100 | > 100 | > 100 | > 100
7 | CCCCC(/C=C\COC1CCCCO1)=C/C(=O)OCC (centres undefined) | > 100 | > 100 | > 100 | > 100 | > 100 | > 100 | > 100 | > 100 | > 100 | > 100 | > 100 | > 100 | > 100 | > 100 | > 100 | – | > 100 | > 100
8 | COc1cc(C2c3cc4c(cc3OC(NCCc3ccccc3)C2C)OCO4)cc(OC)c1OC (centres undefined) | > 65.3 | 2.18 | 22.7 | 1.23 | 17.6 | – | 66.8 | 0.425 | > 42.1 | 0.779 | 18.1 | 22.8 | 4.12 | 15.4 | > 39.3 | 63.3 | 1.02 | > 62.3
9 | CCOC(=O)CCC(NC(=O)C(N)c1ccc([N+](=O)[O-])cc1)C(=O)NC(CCC(=O)OCC)C(=O)OCC (centres undefined) | > 100 | – | > 100 | – | > 100 | – | > 100 | > 100 | > 100 | – | > 100 | > 100 | > 100 | > 100 | – | > 100 | > 100 | –
10 | CCOC(=O)c1nc2ccccc2nc1Oc1ccc(C#N)cc1 | > 100 | > 100 | > 100 | > 100 | > 100 | > 100 | > 100 | > 100 | > 100 | – | > 100 | > 100 | > 100 | > 100 | > 100 | > 100 | – | > 100
11 | O=C1NC(=S)NC(=O)C1=Cc1ccc(-c2ccccc2)cc1 | > 100 | > 100 | > 100 | > 100 | > 100 | > 100 | > 100 | > 100 | > 100 | – | > 100 | > 100 | > 100 | > 100 | > 100 | > 100 | > 100 | > 100
12 | COc1cc(C2SCC(=O)N2c2ccc(NC(C)=O)cc2)cc(OC)c1OC (centres undefined) | > 100 | > 100 | > 100 | > 100 | – | > 100 | > 100 | > 100 | > 100 | > 100 | > 100 | > 100 | > 100 | > 100 | > 100 | > 100 | > 100 | > 100
13 | CC1(C)S[C@H](CN)N[C@H]1C(=O)OC(c1ccccc1)c1ccccc1 | > 100 | > 100 | 92.2 | – | 83.8 | – | 74.3 | > 100 | 93.3 | 83.4 | > 100 | 92.6 | > 100 | > 100 | > 100 | 91.6 | > 100 | –
14 | CCO/C(O)=C(/C(=N)N1CCCC1)C(=O)Nc1cccc(Cl)c1 | > 100 | > 100 | > 100 | > 100 | > 100 | > 100 | > 100 | > 100 | > 100 | > 100 | > 100 | – | > 100 | > 100 | > 100 | – | > 100 | > 100
